Experiment: Inhibition of LDHB Activity
Method: This example describes a human LDHB biochemical assay employed in the characterization of a compound of Formula I in an embodiment of the dislcosure.Test compounds were placed in a Greiner Bio-One (Monroe, N.C.) 1536-well black solid bottom assay plate. 200 mM Tris HCl, pH 7.4, 100 μM EDTA and 0.01% TWEEN-20 , final concentration, was used as the assay buffer. The LDHB reagent was 2 nM Human LDHB (Meridian Life Science, Inc., Memphis, Tenn.), final concentration, in assay buffer. The substrate reagent was 0.13 mM NADH and 0.16 mM sodium pyruvate, final concentration, in assay buffer. The resazurin/diaphorase coupling reagent was 0.037 mM resazurin and 0.133 mg/mL diaphorase, final concentration, in assay buffer.

IC50 [nM]	Compound
< 100	CC1CC=C(c2cc(-c3nn(-c4nc(C(=O)O)cs4)c(CC4CC4)c3Cc3ccc(S(N)(=O)=O)c(F)c3)ccc2F)CC1 (configuration not stated) [US11752138, Compound 101]
< 100	CC1CCCC=C1c1cc(-c2nn(-c3nc(C(=O)O)cs3)c(CC3CC3)c2Cc2ccc(S(N)(=O)=O)c(F)c2)ccc1F (configuration not stated) [US11752138, Compound 103]
< 100	COC1CC=C(c2cc(-c3nn(-c4nc(C(=O)O)cs4)c(CC4CC4)c3Cc3ccc(S(N)(=O)=O)c(F)c3)ccc2F)CC1 (configuration not stated) [US11752138, Compound 104]
< 100	CC1(C)CC=C(c2cc(-c3nn(-c4nc(C(=O)O)cs4)c(CC4CC4)c3Cc3ccc(S(N)(=O)=O)c(F)c3)ccc2F)CC1 [US11752138, Compound 106]
< 100	Cc1ncc(C#Cc2cc(-c3nn(-c4nc(C(=O)O)cs4)c(CC4CC4)c3Cc3ccc(S(N)(=O)=O)c(F)c3)ccc2F)s1 [US11752138, Compound 111]
< 100	Cc1ccc(C#Cc2cc(-c3nn(-c4nc(C(=O)O)cs4)c(CCC4CC4)c3Cc3ccc(S(N)(=O)=O)c(F)c3)ccc2F)s1 [US11752138, Compound 113]
< 100	Cc1cnc(C#Cc2cc(-c3nn(-c4nc(C(=O)O)cs4)c(CC4CC4)c3Cc3ccc(S(N)(=O)=O)c(F)c3)ccc2F)s1 [US11752138, Compound 114]
< 100	Cc1ccc(C#Cc2cccc(-c3nn(-c4nc(C(=O)O)cs4)c(CCC4CC4)c3Cc3ccc(S(N)(=O)=O)c(F)c3)c2)s1 [US11752138, Compound 115]
< 100	NS(=O)(=O)c1ccc(Cc2c(-c3cccc(C#Cc4ccc(Cl)s4)c3)nn(-c3nc(C(=O)O)cs3)c2CC2CC2)cc1F [US11752138, Compound 118]
< 100	Cc1ccc(/C=C/c2cccc(-c3nn(-c4nc(C(=O)O)cs4)c(CC4CC4)c3Cc3ccc(S(N)(=O)=O)c(F)c3)c2)s1 [US11752138, Compound 119]
< 100	Cc1ccsc1C#Cc1cccc(-c2nn(-c3nc(C(=O)O)cs3)c(CC3CC3)c2Cc2ccc(S(N)(=O)=O)c(F)c2)c1 [US11752138, Compound 120]
< 100	NS(=O)(=O)c1ccc(Cc2c(-c3cccc(C#Cc4ccc(C(F)F)s4)c3)nn(-c3nc(C(=O)O)cs3)c2CC2CC2)cc1F [US11752138, Compound 121]
< 100	Cc1cnc(C#Cc2cccc(-c3nn(-c4nc(C(=O)O)cs4)c(CC4CC4)c3Cc3ccc(S(N)(=O)=O)c(F)c3)c2)o1 [US11752138, Compound 122]
< 100	Cc1ccc(C#Cc2cccc(-c3nn(-c4nc(C(=O)O)cs4)c(CC4(C)CC4)c3Cc3ccc(S(N)(=O)=O)c(F)c3)c2)s1 [US11752138, Compound 123]
< 100	Cc1cc(C)c(C#Cc2cccc(-c3nn(-c4nc(C(=O)O)cs4)c(CC4CC4)c3Cc3ccc(S(N)(=O)=O)c(F)c3)c2)s1 [US11752138, Compound 125]
< 100	Cc1ccc(C#Cc2cccc(-c3nn(-c4nc(C(=O)O)cs4)c(CC4CC4)c3Cc3ccc(S(N)(=O)=O)c(F)c3)c2)o1 [US11752138, Compound 129]
< 100	Cc1ccc(C2CC2c2cccc(-c3nn(-c4nc(C(=O)O)cs4)c(CC4CC4)c3Cc3ccc(S(N)(=O)=O)c(F)c3)c2)s1 (configuration not stated) [US11752138, Compound 130]
< 100	Cc1ccc(-c2cc(-c3nn(-c4nc(C(=O)O)cs4)c(CC4CC4)c3Cc3ccc(S(N)(=O)=O)c(F)c3)ccc2F)cc1F [US11752138, Compound 137]

IC50 [nM]	Compound
< 100	CC(=O)c1cc(-c2nn(-c3nc(C(=O)O)cs3)c(CC3CC3)c2Cc2ccc(S(N)(=O)=O)c(F)c2)ccc1F [US11752138, Compound 140]
< 100	COc1ccc(-c2cc(-c3nn(-c4nc(C(=O)O)cs4)c(CC4CC4)c3Cc3ccc(S(N)(=O)=O)c(F)c3)ccc2F)cc1C [US11752138, Compound 150]
< 100	NS(=O)(=O)c1ccc(Cc2c(-c3ccc(F)c(NC(=O)c4ccccc4)c3)nn(-c3nc(C(=O)O)cs3)c2CC2CC2)cc1F [US11752138, Compound 152]
< 100	COc1cc(OC)cc(-c2cc(-c3nn(-c4nc(C(=O)O)cs4)c(CC4CC4)c3Cc3ccc(S(N)(=O)=O)c(F)c3)ccc2F)c1 [US11752138, Compound 153]
< 100	NS(=O)(=O)c1ccc(Cc2c(-c3ccc(F)c(-c4cc(F)cc(F)c4)c3)nn(-c3nc(C(=O)O)cs3)c2CC2CC2)cc1F [US11752138, Compound 156]
< 100	CC(C)N1CC2(CN(c3cc(-c4nn(-c5nc(C(=O)O)cs5)c(CC5CC5)c4Cc4ccc(S(N)(=O)=O)c(F)c4)ccc3F)C2)C1 [US11752138, Compound 158]
< 100	NS(=O)(=O)c1ccc(Cc2c(-c3ccc(F)c(-c4ncc[nH]4)c3)nn(-c3nc(C(=O)O)cs3)c2CC2CC2)cc1F [US11752138, Compound 159]
< 100	Cc1ncc(-c2cc(-c3nn(-c4nc(C(=O)O)cs4)c(CC4CC4)c3Cc3ccc(S(N)(=O)=O)c(F)c3)ccc2F)[nH]1 [US11752138, Compound 161]
< 100	NS(=O)(=O)c1ccc(Cc2c(-c3cccc(-c4ccc(Cl)c(F)c4)c3)nn(-c3nc(C(=O)O)cs3)c2CC2CC2)cc1F [US11752138, Compound 164]
< 100	COc1ccc(-c2cccc(-c3nn(-c4nc(C(=O)O)cs4)c(CC4CC4)c3Cc3ccc(S(N)(=O)=O)c(F)c3)c2)cc1C [US11752138, Compound 165]
< 100	NS(=O)(=O)c1ccc(Cc2c(-c3cccc(-c4ccc(Cl)cc4)c3)nn(-c3nc(C(=O)O)cs3)c2CC2CC2)cc1F [US11752138, Compound 166]
< 100	Cc1ccc(-c2cccc(-c3nn(-c4nc(C(=O)O)cs4)c(CC4CC4)c3Cc3ccc(S(N)(=O)=O)c(F)c3)c2)cc1F [US11752138, Compound 167]
< 100	CC(C)c1ccc(-c2cccc(-c3nn(-c4nc(C(=O)O)cs4)c(CC4CC4)c3Cc3ccc(S(N)(=O)=O)c(F)c3)c2)cc1 [US11752138, Compound 169]
< 100	CC(C)c1cccc(-c2cccc(-c3nn(-c4nc(C(=O)O)cs4)c(CC4CC4)c3Cc3ccc(S(N)(=O)=O)c(F)c3)c2)c1 [US11752138, Compound 173]
< 100	NS(=O)(=O)c1ccc(Cc2c(-c3cccc(-c4cccc(Cl)c4)c3)nn(-c3nc(C(=O)O)cs3)c2CC2CC2)cc1F [US11752138, Compound 175]
< 100	N#Cc1ccc(-c2cccc(-c3nn(-c4nc(C(=O)O)cs4)c(CC4CC4)c3Cc3ccc(S(N)(=O)=O)c(F)c3)c2)cc1 [US11752138, Compound 176]
< 100	CN(C)c1ccc(-c2cccc(-c3nn(-c4nc(C(=O)O)cs4)c(CC4CC4)c3Cc3ccc(S(N)(=O)=O)c(F)c3)c2)cc1 [US11752138, Compound 178]

Compound	IC50 [nM]
Cc1ccc(C#Cc2cccc(-c3nn(-c4nc(C(=O)O)cs4)c(CC4CC4)c3Cc3ccc(S(N)(=O)=O)c(F)c3)c2)s1 [US11752138, Compound 112]	< 100
Cc1ccc(C#Cc2cc(-c3nn(-c4nc(C(=O)O)cs4)c(CC4CC4)c3Cc3ccc(S(N)(=O)=O)c(F)c3)ccc2F)s1 [US11752138, Compound 249]	< 100

Source: BindingDB's records for patent US11752138 (Vanderbilt University, 2023)
